# According to ChEMBL document CHEMBL1141107, “A novel series of non-carboxylic acid, non-hydantoin inhibitors of aldose reductase with potent oral activity in diabetic rat models: 6-(5-chloro-3-methylbenzofuran-2-sulfonyl)-2H-pyridazin-3-one and congeners” (J Med Chem, 2005):
# Columns and labels:
# Rattus norvegicus [1] = assay: Inhibition of sorbitol accumulation in diabetic rat by acute test dosed at 60 mg/kg; format: functional
# [2] = target: Aldo-keto reductase family 1 member B1 (Homo sapiens, UniProt P15121); assay: In vitro inhibitroy concentration against Aldose reductase incubated at 24 degree C for 15 minutes in pH 7.0
# Rattus norvegicus [3] = species on record: Rattus norvegicus; assay: Inhibition of sorbitol accumulation in diabetic rat by chronic test; format: functional
# Rattus norvegicus [4] = species on record: Rattus norvegicus; assay: Inhibition of sorbitol accumulation in diabetic rat by acute test; format: functional
# Rattus norvegicus [5] = assay: Inhibition of sorbitol accumulation in diabetic rat by chronic test dosed at 3 mg/kg; format: functional
# Rattus norvegicus [6] = species on record: Rattus norvegicus; assay: Dose required for inhibition of sorbitol accumulation in diabetic rat by acute test; format: functional
# Rattus norvegicus [7] = assay: Inhibition of sorbitol accumulation in diabetic rat by acute test dosed at 3 mg/kg; format: functional
# Rattus norvegicus [8] = assay: Dose required for fructose accumulation in diabetic rat after oral gavage administration, pH 4.5 by chronic test; format: functional
# Rattus norvegicus [9] = assay: Inhibition of sorbitol accumulation in diabetic rat by acute test dosed at 10 mg/kg; format: functional
# Rattus norvegicus [10] = species on record: Rattus norvegicus; assay: Dose required for sorbitol accumulation in diabetic rat by chronic test
# Rattus norvegicus [11] = assay: Inhibition of fructose accumulation in diabetic rat after oral gavage administration, pH 4.5 by chronic test dosed at 1 mg/kg; format: functional
# Rattus norvegicus [12] = assay: Inhibition of sorbitol accumulation in diabetic rat by acute test dosed at 1 mg/kg; format: functional
# Rattus norvegicus [13] = assay: Inhibition of fructose accumulation in diabetic rat after oral gavage administration incubated at RT for 60 minutes in pH 4.5 by acute test dosed at 3 mg/kg; format: functional; details: 1 h
# Rattus norvegicus [14] = assay: Inhibition of fructose accumulation in diabetic rat after oral gavage administration, pH 4.5 by chronic test dosed at 10 mg/kg; format: functional
# Rattus norvegicus [15] = assay: Inhibition of sorbitol accumulation in diabetic rat by chronic test dosed at 10 mg/kg; format: functional
# Rattus norvegicus [16] = assay: Dose required for fructose accumulation in diabetic rat after oral gavage administration incubated at RT for 60 minutes in pH 4.5 by acute test; details: 1 h
# Rattus norvegicus [17] = assay: Inhibition of sorbitol accumulation in diabetic rat by chronic test dosed at 1 mg/kg; format: functional
# Rattus norvegicus [18] = assay: Inhibition of fructose accumulation in diabetic rat after oral gavage administration, pH 4.5 by chronic test dosed at 3 mg/kg; format: functional
# Rattus norvegicus [19] = assay: Dose required for fructose accumulation in diabetic rat after oral gavage administration incubated at RT for 60 minutes in pH 4.5 by acute; format: functional
# Rattus norvegicus [20] = assay: Inhibition of fructose accumulation in diabetic rat after oral gavage administration incubated at RT for 60 minutes in pH 4.5 by acute test dosed at 10 mg/kg; format: functional; details: 1 h
# Rattus norvegicus [21] = assay: Inhibition of fructose accumulation in diabetic rat after oral gavage administration incubated at RT for 60 minutes in pH 4.5 by acute test dosed at 25 mg/kg; format: functional; details: 1 h
# Rattus norvegicus [22] = assay: Inhibition of sorbitol accumulation in diabetic rat by acute test dosed at 25 mg/kg; format: functional
# Rattus norvegicus [23] = assay: Inhibition of fructose accumulation in diabetic rat after oral gavage administration incubated at RT for 60 minutes in pH 4.5 by acute test dosed at 50 mg/kg; format: functional; details: 1 h
# Rattus norvegicus [24] = assay: Inhibition of sorbitol accumulation in diabetic rat by acute test dosed at 50 mg/kg; format: functional
# [25] = Maximum plasma concentration in rat was determined; format: ADME, organism-based
# Rattus norvegicus [26] = assay: Dose required for fructose accumulation in diabetic rat after oral gavage administration incubated at RT for 60 minutes in pH 4.5 by acute test; format: functional
# Rattus norvegicus [27] = species on record: Rattus norvegicus; assay: Dose required for sorbitol accumulation in diabetic rat by chronic test; format: functional
# Rattus norvegicus [28] = assay: Inhibition of fructose accumulation in diabetic rat after oral gavage administration incubated at RT for 60 minutes in pH 4.5 by acute test dosed at 1 mg/kg; format: functional; details: 1 h
Compound,IC50 [2] [nM],inhibition in vivo at 3 mg/kg (Rattus norvegicus [5]) [%],ED50 (Rattus norvegicus [6]) [mg/kg],inhibition in vivo at 3 mg/kg (Rattus norvegicus [7]) [%],inhibition in vivo at 10 mg/kg (Rattus norvegicus [9]) [%],inhibition in vivo at 1 mg/kg (Rattus norvegicus [11]) [%],inhibition in vivo at 1 mg/kg (Rattus norvegicus [12]) [%],inhibition in vivo at 3 mg/kg (Rattus norvegicus [13]) [%],inhibition in vivo at 10 mg/kg (Rattus norvegicus [14]) [%],inhibition in vivo at 10 mg/kg (Rattus norvegicus [15]) [%],inhibition in vivo at 1 mg/kg (Rattus norvegicus [17]) [%],inhibition in vivo at 3 mg/kg (Rattus norvegicus [18]) [%],inhibition in vivo at 10 mg/kg (Rattus norvegicus [20]) [%],ED50 (Rattus norvegicus [26]) [mg/kg],other results
O=c1ccc(S(=O)(=O)Cc2ccccc2)n[nH]1,600,–,–,–,–,–,–,–,–,–,–,–,–,–,inhibition in vivo at 60 mg/kg (Rattus norvegicus [1]): 73%
O=S(=O)(c1ccccc1)c1ccc(S(=O)(=O)c2ccccc2)nn1,–,–,–,–,–,–,–,–,–,–,–,–,–,–,Inhibition (Rattus norvegicus [3]): 50%; Inhibition (Rattus norvegicus [4]): 58%
O=S(=O)(c1ccccc1)c1ccc(O)nn1,–,–,15,–,40,–,–,–,–,–,–,–,14,–,ED50 (Rattus norvegicus [19]): 25 mg/kg; inhibition in vivo at 25 mg/kg (Rattus norvegicus [21]): 49%; inhibition in vivo at 25 mg/kg (Rattus norvegicus [22]): 73%; inhibition in vivo at 50 mg/kg (Rattus norvegicus [23]): 74%; inhibition in vivo at 50 mg/kg (Rattus norvegicus [24]): 95%

# The next lines start with results.
IC50 [2] [nM],Compound,inhibition in vivo at 3 mg/kg (Rattus norvegicus [5]) [%],ED50 (Rattus norvegicus [6]) [mg/kg],inhibition in vivo at 3 mg/kg (Rattus norvegicus [7]) [%],inhibition in vivo at 10 mg/kg (Rattus norvegicus [9]) [%],inhibition in vivo at 1 mg/kg (Rattus norvegicus [11]) [%],inhibition in vivo at 1 mg/kg (Rattus norvegicus [12]) [%],inhibition in vivo at 3 mg/kg (Rattus norvegicus [13]) [%],inhibition in vivo at 10 mg/kg (Rattus norvegicus [14]) [%],inhibition in vivo at 10 mg/kg (Rattus norvegicus [15]) [%],inhibition in vivo at 1 mg/kg (Rattus norvegicus [17]) [%],inhibition in vivo at 3 mg/kg (Rattus norvegicus [18]) [%],inhibition in vivo at 10 mg/kg (Rattus norvegicus [20]) [%],ED50 (Rattus norvegicus [26]) [mg/kg],other results
5,Cc1c(S(=O)(=O)c2ccc(O)nn2)oc2ccc(C(F)(F)F)cc12,95,1.3,91,101,54,43,79,100,102,75,81,–,–,ED50 (Rattus norvegicus [8]): 1 mg/kg; ED50 (Rattus norvegicus [10]): < 1 mg/kg; ED50 (Rattus norvegicus [16]): 2 mg/kg
1,Cc1c(S(=O)(=O)c2ccc(=O)[nH]n2)oc2ccc(Cl)cc12,–,0.2,–,–,–,–,–,–,–,–,–,–,0.8,Cmax [25]: 9000 ng/mL
3,Cc1c(S(=O)(=O)c2ccc(O)nn2)oc2ccc(F)cc12,86,1.2,66,84,17,47,42,90,100,52,64,62,5.8,ED50 (Rattus norvegicus [27]): 1 mg/kg; inhibition in vivo at 1 mg/kg (Rattus norvegicus [28]): 11%
